Laboratory results taken from ChEMBL document CHEMBL1201862, “PubChem BioAssay data set” (2004).
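Five compound concentrations were applied to cells in 96-well plates for 48 hours; endpoints were derived by simple linear interpolation of the resulting dose-response curve. Here, GI50 denotes the concentration required for 50% inhibition of growth.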 Activity calls are given as the source filed them. Rule as the data show it: active = GI50 up to about 1.1 µM and inactive = higher.

Experiments:
Experiment in all cases: NCI-60 cell line screen, 48 h
RPMI-8226 = system: RPMI-8226
K562 = system: K562
TK-10 = system: TK-10
A498 = system: A498
A549 = system: A549
IGROV-1 = system: IGROV-1
SW-620 = system: SW-620
T47D = system: T47D
PC-3 = system: PC-3
HOP-62 = system: HOP-62
NCI-H226 = system: NCI-H226
BT-549 = system: BT-549
SF-295 = system: SF-295
NCI-H522 = system: NCI-H522
DU-145 = system: DU-145
NCI-H23 = system: NCI-H23
SF-268 = system: SF-268
SK-MEL-28 = system: SK-MEL-28
CCRF-CEM = system: CCRF-CEM
HL-60 = system: HL-60

SMILES | GI50 (RPMI-8226) | GI50 (K562) | GI50 (TK-10) | GI50 (A498) | GI50 (A549) | GI50 (IGROV-1) | GI50 (SW-620) | GI50 (T47D) | GI50 (PC-3) | GI50 (HOP-62) | GI50 (NCI-H226) | GI50 (BT-549) | GI50 (SF-295) | GI50 (NCI-H522) | GI50 (DU-145) | GI50 (NCI-H23) | GI50 (SF-268) | GI50 (SK-MEL-28) | GI50 (CCRF-CEM) | GI50 (HL-60)
CC1(C)SC2C(C(=O)O)N=C(Cc3ccccc3)N2C1C(=O)O (centres undefined) | 46.8 µM (inactive) | 62.7 µM (inactive) | 20.4 µM (inactive) | 53.7 µM (inactive) | 31.8 µM (inactive) | > 100 µM (inactive) | 60.3 µM (inactive) | 24.4 µM (inactive) | 42.7 µM (inactive) | 32.1 µM (inactive) | 29.8 µM (inactive) | 31 µM (inactive) | 31.7 µM (inactive) | 51.3 µM (inactive) | 56.6 µM (inactive) | 86.3 µM (inactive) | 30.1 µM (inactive) | 52.4 µM (inactive) |  | 
CC(OC(=O)C(CC(=O)OC(C)(C)C)NC(=O)OC(C)(C)C)C(=O)OCc1ccccc1 (centres undefined) | > 100 µM (inactive) | > 100 µM (inactive) | > 100 µM (inactive) |  | > 100 µM (inactive) | > 100 µM (inactive) | > 100 µM (inactive) | > 100 µM (inactive) | > 100 µM (inactive) | > 100 µM (inactive) | > 100 µM (inactive) | > 100 µM (inactive) | > 100 µM (inactive) | > 100 µM (inactive) | > 100 µM (inactive) | > 100 µM (inactive) | > 100 µM (inactive) | > 100 µM (inactive) | > 100 µM (inactive) | > 100 µM (inactive)
C[C@]12CC[C@H]3[C@@H](CCC4=C[C@@H](N5CCCC5)CC[C@@]43C)[C@@H]1C/C(=C\c1ccncc1)[C@@H]2O | 4.79 µM (inactive) | 3.24 µM (inactive) | 13.2 µM (inactive) |  | 12.3 µM (inactive) | 20.6 µM (inactive) | 13.4 µM (inactive) | 16.4 µM (inactive) | 13.6 µM (inactive) | 4.68 µM (inactive) | 15.6 µM (inactive) | 18.3 µM (inactive) | 4.91 µM (inactive) | 10.3 µM (inactive) | 15.9 µM (inactive) | 15.5 µM (inactive) | 16.5 µM (inactive) | 7.31 µM (inactive) | 0.445 µM (active) | 16 µM (inactive)
CC(C)(C)OC(=O)NCC(c1c[nH]c2cc(Br)ccc12)c1c[nH]c2cc(Br)ccc12 | 32.7 µM (inactive) | 40.1 µM (inactive) | 19.7 µM (inactive) |  | 20.1 µM (inactive) | 14.9 µM (inactive) | 28.9 µM (inactive) | 17.6 µM (inactive) | 17.3 µM (inactive) | 17.4 µM (inactive) | 15.4 µM (inactive) | 16.1 µM (inactive) | 18.6 µM (inactive) | 17.3 µM (inactive) | 17.7 µM (inactive) | 18.2 µM (inactive) | 16.3 µM (inactive) | 29.2 µM (inactive) | 62.1 µM (inactive) | 27.2 µM (inactive)
CN1CCN(Cc2nc3c(s2)CCc2sccc2-3)CC1 | > 100 µM (inactive) | 89.3 µM (inactive) | 92.7 µM (inactive) | 12.7 µM (inactive) | > 100 µM (inactive) | > 100 µM (inactive) | > 100 µM (inactive) | 41.6 µM (inactive) | 63.8 µM (inactive) | > 100 µM (inactive) | > 100 µM (inactive) | > 100 µM (inactive) | 73.1 µM (inactive) | > 100 µM (inactive) | > 100 µM (inactive) | > 100 µM (inactive) | 82.6 µM (inactive) | 25.4 µM (inactive) | > 100 µM (inactive) | 
Cc1c(C)c2c(c(N)c1C#N)C(=O)N(OS(=O)(=O)c1ccccc1)C2=O | 15.1 µM (inactive) | 16.7 µM (inactive) | 18 µM (inactive) | > 100 µM (inactive) | 15.6 µM (inactive) | 18.5 µM (inactive) | 20.8 µM (inactive) | 2.55 µM (inactive) | 35.6 µM (inactive) |  | 18.5 µM (inactive) | 19.9 µM (inactive) | > 100 µM (inactive) | 17.1 µM (inactive) | 11.6 µM (inactive) |  | 95.1 µM (inactive) | 24.5 µM (inactive) | 21.5 µM (inactive) | 30.1 µM (inactive)
Cc1cc(Cl)nc2nc(Cl)c(N)cc12 | 2.26 µM (inactive) | 3.23 µM (inactive) | 6.58 µM (inactive) |  | 13.5 µM (inactive) | 7.87 µM (inactive) | 2.04 µM (inactive) | 3.21 µM (inactive) | 12.1 µM (inactive) | 6.76 µM (inactive) | 21.5 µM (inactive) | 14.6 µM (inactive) | 12.3 µM (inactive) | 4.53 µM (inactive) | 7.03 µM (inactive) | 7.24 µM (inactive) | 2.29 µM (inactive) | 2.56 µM (inactive) | 1.67 µM (inactive) | 1.77 µM (inactive)
O=C(NCCC1([N+](=O)[O-])CCN(C(=O)c2ccccc2)CC1)c1ccccc1 | 58.7 µM (inactive) | > 100 µM (inactive) | > 100 µM (inactive) | > 100 µM (inactive) | > 100 µM (inactive) | > 100 µM (inactive) | > 100 µM (inactive) | > 100 µM (inactive) | > 100 µM (inactive) |  | > 100 µM (inactive) | > 100 µM (inactive) | > 100 µM (inactive) | > 100 µM (inactive) | > 100 µM (inactive) | > 100 µM (inactive) | > 100 µM (inactive) |  | > 100 µM (inactive) | > 100 µM (inactive)
CCOc1ccc2nc3nc(O)nc(C)c3c(NC(C)(CO)CO)c2c1 |  | > 100 µM (inactive) | > 100 µM (inactive) | > 100 µM (inactive) | > 100 µM (inactive) | > 100 µM (inactive) | > 100 µM (inactive) | > 100 µM (inactive) | > 100 µM (inactive) | > 100 µM (inactive) | > 100 µM (inactive) | > 100 µM (inactive) | > 100 µM (inactive) | > 100 µM (inactive) | > 100 µM (inactive) | > 100 µM (inactive) | > 100 µM (inactive) | > 100 µM (inactive) | > 100 µM (inactive) | > 100 µM (inactive)
c1ccc(N/N=C2\CC(c3ccccc3)Oc3ccccc32)cc1 (centres undefined) |  | 41.9 µM (inactive) | 74.1 µM (inactive) | 42.2 µM (inactive) | 53.7 µM (inactive) | 22.6 µM (inactive) | 30.5 µM (inactive) | 26.4 µM (inactive) | 47.1 µM (inactive) | 61 µM (inactive) | > 100 µM (inactive) | 39.8 µM (inactive) | 42.7 µM (inactive) | 21.8 µM (inactive) | 36 µM (inactive) | 60.4 µM (inactive) | 35.8 µM (inactive) | > 100 µM (inactive) | 33 µM (inactive) | 38.2 µM (inactive)
CC(=O)OCC(OC(C)=O)C(OC(C)=O)C(/C=N\Nc1nc2ccccc2c(=O)[nH]1)=N\Nc1nc2ccccc2c(=O)[nH]1 (centres undefined) | > 100 µM (inactive) | > 100 µM (inactive) |  |  | > 100 µM (inactive) | > 100 µM (inactive) | > 100 µM (inactive) | 47 µM (inactive) | > 100 µM (inactive) | > 100 µM (inactive) | > 100 µM (inactive) | > 100 µM (inactive) | > 100 µM (inactive) | > 100 µM (inactive) | > 100 µM (inactive) | > 100 µM (inactive) | > 100 µM (inactive) | > 100 µM (inactive) | 34.4 µM (inactive) | > 100 µM (inactive)
C#Cc1nc(N)c2ncn(C3OC(COS(N)(=O)=O)C(O)C3O)c2n1 (centres undefined) | 0.0172 µM (active) | 0.0131 µM (active) | < 0.022 µM (active) | < 0.0148 µM (active) | 0.0881 µM (active) | 0.0291 µM (active) | < 0.0248 µM (active) | < 0.01 µM (active) | < 0.0204 µM (active) | 0.146 µM (active) | 0.0158 µM (active) | < 0.01 µM (active) | 0.757 µM (active) | < 0.01 µM (active) | 0.0518 µM (active) | < 0.0164 µM (active) | 0.018 µM (active) | 0.0374 µM (active) | < 0.0189 µM (active) | 
CC1C2CC(CC2(C)O)C1(C)C (centres undefined) |  | > 100 µM (inactive) | > 100 µM (inactive) | > 100 µM (inactive) | > 100 µM (inactive) | > 100 µM (inactive) | > 100 µM (inactive) | > 100 µM (inactive) | > 100 µM (inactive) | > 100 µM (inactive) | > 100 µM (inactive) | > 100 µM (inactive) | > 100 µM (inactive) | > 100 µM (inactive) | > 100 µM (inactive) | > 100 µM (inactive) | > 100 µM (inactive) | > 100 µM (inactive) | > 100 µM (inactive) | > 100 µM (inactive)
COc1ccc2c(c1)CC1C3(CCCCC23)CC[N+]1(C)C (centres undefined) | > 100 µM (inactive) | 75.5 µM (inactive) | > 100 µM (inactive) |  | > 100 µM (inactive) | > 100 µM (inactive) |  | > 100 µM (inactive) | > 100 µM (inactive) | > 100 µM (inactive) | > 100 µM (inactive) | 24.9 µM (inactive) | > 100 µM (inactive) | 58.9 µM (inactive) | > 100 µM (inactive) | > 100 µM (inactive) | 90.8 µM (inactive) | > 100 µM (inactive) | > 100 µM (inactive) | 50.5 µM (inactive)
O=C(O)c1cc(C(=O)C(=O)c2cc(C(=O)O)c(O)c3ccccc23)c2ccccc2c1O | > 100 µM (inactive) | > 100 µM (inactive) | > 100 µM (inactive) | > 100 µM (inactive) | > 100 µM (inactive) | > 100 µM (inactive) | > 100 µM (inactive) | > 100 µM (inactive) | > 100 µM (inactive) | > 100 µM (inactive) | > 100 µM (inactive) | > 100 µM (inactive) | > 100 µM (inactive) | > 100 µM (inactive) | > 100 µM (inactive) | > 100 µM (inactive) | > 100 µM (inactive) | > 100 µM (inactive) |  | 
